The data set in a line: Oral PK and PK modeling of KAE609 in NMRI mice. In kind it is in vivo, female NMRI mice. As to conditions: for AUC(0-inf) / Cmax: NMRI, 5.3 mg/kg, single oral dose 5.3 mg/kg. The protocol: For the in vivo PK studies, female NMRI mice (specific pathogen free) were obtained from Janvier, Le Genest-Saint-Isle, France. To investigate the influence of the disease status on the pharmacokinetics, a single oral dose (5.3 mg/kg) of KAE609 was given to both the infected and uninfected NMRI mice, and the PK parameters were determined. The infected mice were dosed at 24 h postinfection. The formulation, sampling times (0.25, 0.5, 1, 2, 4, 8, 24, and 48 h postdose), extraction, and analysis were similar to those in the method described above.
Population PK modeling of the concentration-time data of KAE609 in mice was performed using naive pooling without intersubject variability using NONMEM version VI 2.0. A two-compartment pharmacokinetic model with first-order absorption and nonlinear elimination was built to fit the concentration-time data of KAE609 generated in (infected and healthy) NMRI mice at 5.3 mg/kg. In the model, clearance (CL) was described by equation 2, where Cp is compound plasma concentration, the maximum metabolic rate (Vmax)/Km ratio is the maximal clearance achievable when Cp is ≪Km, and Km corresponds to the compound concentration at which the clearance reached 50% of the Vmax/Km. The primary model parameters derived were plasma clearance (CL) (in liters/h/kg), intercompartmental clearance (Q) (in liters/h/kg), central and peripheral volume of distribution (Vc and Vp, respectively) (in liters/kg), and the absorption rate constant (Ka) (in h^−1). The diagnostic plots were analyzed for closeness to and randomness along the line of identity on the observed versus predicted concentration plot, as well as randomness along the weighted residual zero line on the predicted concentration or time. […] Based on the estimated primary model parameters (Vmax, Km, Vc, Vp, Q, and Ka), the plasma concentration-time profiles and secondary pharmacokinetic parameters, such as Cmax, AUC at different doses, and dosing regimens, were simulated using the Berkeley Madonna software (version 8.0.1) (Berkeley Madonna, University of California, Berkeley, CA. 2 CL=Vmax/(Km+Cp)

Setting [1] is: female, mouse, plasma, po, infected NMRI mice.
The mark [2] stands for this setting: female, mouse, plasma, po, uninfected NMRI mice.
Where [3] appears, read: two-compartment model, NMRI mice 5.3 mg/kg p.o.

Experimental findings from paper PMC4335872, “Pharmacokinetic-Pharmacodynamic Analysis of Spiroindolone Analogs and KAE609 in a Murine Malaria Model” (Antimicrobial Agents and Chemotherapy, 2015) are described below.

The structures appear in SMILES notation.

By AUC(0-inf) is commonly meant total exposure, with the tail of the curve extrapolated. Usually Cmax stands for the maximum level reached in the sampled fluid or tissue. The Km is the concentration of substrate that gives half-maximal velocity.

In the case of `C[C@H]1Cc2c([nH]c3cc(Cl)c(F)cc23)[C@@]2(N1)C(=O)Nc1ccc(Cl)cc12` [(+)-7 (KAE609)], the “Fold higher Cmax and exposure in NMRI mice than in CD-1 mice” value (comparable oral dose (5 mg/kg)) was 4 fold. Under setting [1], this molecule registered a total exposure AUC(0-inf) of 12600 ng·h/mL and a Cmax of 960 ng/mL. Under setting [2], this molecule yielded an AUC(0-inf) of 13200 ng·h/mL and a peak concentration (Cmax) of 1010 ng/mL. The Km (female, mouse, plasma, po, two-compartment model, nonlinear elimination, NMRI mice 5.3 mg/kg p.o.) was 0.0341 µg/mL. Also, the “Difference in PK profiles between infected and uninfected NMRI mice” value (oral 5.3 mg/kg) is on record as “No significant difference”. Further, under setting [3], the “Ka (absorption rate constant)” value was determined as 1.78 h⁻¹, the “Q (intercompartmental clearance)” value amounted to 10.2 mL/min/kg, the “Vc (central volume of distribution)” value was 4.4 L/kg and the “Vp (peripheral volume of distribution)” value worked out at 5.1 L/kg. Besides, the Vmax (two-compartment model, nonlinear elimination, NMRI mice 5.3 mg/kg p.o.) came out at 143 µg/h/kg.
